From patent US5916876A, “Peptide inhibitors of leukocyte adhesion” (Centocor, Inc., priority 1994, dated 1999) come the findings set out here.

The structures appear in SMILES notation. Residues, ends and D or L forms follow the SMILES beside them.

The target in the assay is T1, human P-selectin (Homo sapiens, UniProt P16109).
T1 construct: from tissue; host or cells: outdated human platelet packs from a blood bank
T1 sequence (P16109 42-830): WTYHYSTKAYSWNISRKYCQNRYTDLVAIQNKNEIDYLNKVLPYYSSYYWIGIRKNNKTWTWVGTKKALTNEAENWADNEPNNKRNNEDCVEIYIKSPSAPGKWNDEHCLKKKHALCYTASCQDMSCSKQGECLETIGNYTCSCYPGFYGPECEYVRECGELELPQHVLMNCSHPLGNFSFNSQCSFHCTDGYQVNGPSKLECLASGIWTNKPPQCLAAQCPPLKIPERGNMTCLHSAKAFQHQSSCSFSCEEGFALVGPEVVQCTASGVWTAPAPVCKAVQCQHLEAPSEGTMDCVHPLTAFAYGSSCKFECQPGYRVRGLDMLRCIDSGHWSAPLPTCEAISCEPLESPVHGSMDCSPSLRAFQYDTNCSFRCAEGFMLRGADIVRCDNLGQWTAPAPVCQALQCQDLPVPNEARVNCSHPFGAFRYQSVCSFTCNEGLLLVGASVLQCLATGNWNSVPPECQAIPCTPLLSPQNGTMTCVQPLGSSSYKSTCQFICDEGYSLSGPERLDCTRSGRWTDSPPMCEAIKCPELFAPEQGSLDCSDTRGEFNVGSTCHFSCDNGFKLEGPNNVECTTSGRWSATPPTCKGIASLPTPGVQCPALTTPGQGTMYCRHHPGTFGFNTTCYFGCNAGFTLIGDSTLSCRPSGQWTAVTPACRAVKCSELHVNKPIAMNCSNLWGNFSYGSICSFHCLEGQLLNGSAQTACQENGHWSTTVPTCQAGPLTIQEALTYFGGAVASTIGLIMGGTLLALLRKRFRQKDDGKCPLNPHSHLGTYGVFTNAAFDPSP
In words: Neutrophil adhesion to purified P-selectin immobilized on plastic wells (myeloperoxidase readout). It counts as cell-based. Particulars: inhibition of binding of human neutrophils to human P-selectin; head: 0.3 μM peptide, text b193: 300 μM; read-out: % INHIBITION AT 0.3 μM PEPTIDE CONC. The text has this:
Peptides can be screened for their ability to inhibit adhesion to cells, for example, neutrophil adhesion to purified P-selectin immobilized on plastic wells, using the assay described by Geng, et al., Nature 343, 757-760 (1990).
Human neutrophils are isolated from heparinized whole blood by density gradient centrifugation on Mono-Poly resolving media, Flow Laboratories. Neutrophil suspensions are greater than 98% pure and greater than 95% viable by trypan blue exclusion. For adhesion assays, neutrophils are suspended at a concentration of 2×10^6 cells/mL in Hanks' balanced salt solution containing 1.26 mM Ca^2+ and 0.81 mM Mg^2+ (HBSS, Gibco) with […] human serum albumin (HBSS/HSA). Adhesion assays are conducted in triplicate in 96-well microtiter plates, Corning, incubated at 4° C. overnight with 50 microliters of various protein solutions.
P-selectin is isolated from human platelet lysates by immunoaffinity chromatography on antibody S12-Sepharose™ and ion-exchange chromatography on a Mono-Q™ column (FLPC, Pharmacia Fine Chemicals), as follows.
Outdated human platelet packs (100 units) obtained from a blood bank and stored at 4° C. are pooled, adjusted to 5 mM EDTA at pH 7.5, centrifuged at 4,000 rpm for 30 minutes in 1 liter bottles, then washed three times with 1 liter of 0.1 M NaCl, 20 mM Tris pH 7.5 (TBS), 5 mM EDTA, 5 mM benzamidine.
The pellets are then resuspended in a minimum amount of wash buffer and made 1 mM in DIFP, then frozen in 50 mL screwtop tubes at -80° C. The frozen platelets are thawed and resuspended in 50 mL TBS, 5 mM benzamidine, 5 mM EDTA pH 7.5, 100 µM leupeptin. The suspension is frozen and thawed two times in a dry ice-acetone bath using a 600 mL lyophilizing flask, then homogenized in a glass/teflon mortar and pestle and made 1 mM in DIFP. The NaCl concentration is adjusted to 0.5 M with a stock solution of 4 M NaCl. After stirring the suspension at 4° C., it is centrifuged in polycarbonate tubes at 33,000 rpm for 60 minutes at 4° C. The supernatant (0.5 M NaCl wash) is removed and saved; this supernatant contains the soluble form of P-selectin. Care is taken not to remove the top part of the pellet with the supernatant. The pellets are then homogenized in extraction buffer (TBS, 5 mM benzamidine, 5 mM EDTA, pH 7.5, 100 μM leupeptin, 2% Triton X-100). After centrifugation at 19,500 rpm for 25 minutes at 4° C., the supernatant is removed. The extraction procedure is repeated with the pellet and the supernatant is combined with the first supernatant. The combined extracts, which contain the membrane form of P-selectin, are adjusted to 0.5 M NaCl.
The soluble fraction (0.5 M NaCl wash) and the membrane extract (also adjusted to 0.5 M NaCl) are absorbed with separate pools of the monoclonal antibody S12 (directed to P-selectin) previously coupled to Affigel (Biorad) at 5 mg/mL for 2 hours at 4° C. After letting the resins settle, the supernatants are removed. The S12 Affigel containing bound GMP-140 is then loaded into a column and washed overnight at 4° C. with 400 mL of 0.5 M NaCl, 20 mM Tris pH 7.5, 0.01% Lubrol PX.
Bound P-selectin is eluted from the S12 Affigel with 100 mL of 80% ethylene glycol, 1 mM MES pH 6.0, 0.01% Lubrol PX. Peak fractions with absorbance at 280 nm are pooled. Eluates are dialyzed against TBS with 0.05% Lubrol, then applied to a Mono Q column (FPLC from Pharmacia). The concentrated protein is step eluted with 2 M NaCl, 20 mM Tris pH 7.5 (plus 0.05% Lubrol PX for the membrane fraction). Peak fractions are dialyzed into TBS pH 7.5 (plus 0.05% Lubrol PX for the membrane fraction).
P-selectin is plated at 5 micrograms/mL and the control proteins: human serum albumin (Alb), platelet glycoprotein IIb/IIIa (IIb), von Willebrand factor (vWF), fibrinogen (FIB), thrombomodulin (TM), gelatin (GEL) or human serum (HS), are added at 50 micrograms/mL. […]
Usually inhibition stands for the change of the read-out against control, counted positive when it falls. On to `CC(C)C[C@H](NC(=O)[C@@H](NC(=O)[C@H](CCCCN)NC(=O)[C@H](CC(N)=O)NC(=O)[C@@H](N)CC(C)C)C(C)C)C(=O)N1CCC[C@H]1C(=O)N[C@@H](Cc1ccc(O)cc1)C(=O)N[C@@H](Cc1ccc(O)cc1)C(=O)N[C@@H](CO)C(=O)N[C@@H](CO)C(=O)N[C@@H](Cc1ccc(O)cc1)C(=O)N[C@@H](Cc1ccc(O)cc1)C(=O)N[C@H](C(N)=O)C(C)C` [SEQ ID NO: 3, Leu--Asn--Lys--Val--Leu--Pro--Tyr--Tyr--Ser--Ser--Tyr--Tyr--Val-NH2] (H-LNKVLPYYSSYYV-NH2), for which the inhibition at 300 µM is 100%.

Consider `CC(C)C[C@H](NC(=O)[C@@H](NC(=O)[C@@H](N)CCCCN)C(C)C)C(=O)N1CCC[C@H]1C(=O)N[C@@H](Cc1ccc(O)cc1)C(=O)N[C@@H](Cc1ccc(O)cc1)C(=O)N[C@@H](CO)C(=O)N[C@@H](CO)C(=O)N[C@@H](Cc1ccc(O)cc1)C(=O)N[C@@H](Cc1ccc(O)cc1)C(=O)N[C@H](C(N)=O)C(C)C` [SEQ ID NO: 5, Lys--Val--Leu--Pro--Tyr--Tyr--Ser--Ser--Tyr--Tyr--Val-NH2] (H-KVLPYYSSYYV-NH2), for which the inhibition at 300 µM was 102%. Then `CC(C)C[C@H](NC(=O)[C@H](Cc1ccc(O)cc1)NC(=O)[C@@H](N)CC(=O)O)C(=O)N[C@@H](CC(N)=O)C(=O)N[C@@H](CCCCN)C(=O)N[C@H](C(=O)N[C@@H](CC(C)C)C(=O)N1CCC[C@H]1C(=O)N[C@@H](Cc1ccc(O)cc1)C(=O)N[C@@H](Cc1ccc(O)cc1)C(=O)N[C@@H](CO)C(=O)N[C@@H](CO)C(=O)N[C@@H](Cc1ccc(O)cc1)C(=O)N[C@@H](Cc1ccc(O)cc1)C(N)=O)C(C)C` [SEQ ID NO: 6, Asp--Tyr--Leu--Asn--Lys--Val--Leu--Pro--Tyr--Tyr--Ser--Ser--Tyr--Tyr-NH2] (H-DYLNKVLPYYSSYY-NH2), with 61%; and `CC(C)C[C@H](NC(=O)[C@@H](N)C(C)C)C(=O)N1CCC[C@H]1C(=O)N[C@@H](Cc1ccc(O)cc1)C(=O)N[C@@H](Cc1ccc(O)cc1)C(=O)N[C@@H](CO)C(=O)N[C@@H](CO)C(=O)N[C@@H](Cc1ccc(O)cc1)C(=O)N[C@@H](Cc1ccc(O)cc1)C(=O)N[C@H](C(N)=O)C(C)C` [SEQ ID NO: 10, Val--Leu--Pro--Tyr--Tyr--Ser--Ser--Tyr--Tyr--Val-NH2] (H-VLPYYSSYYV-NH2), with 66%; and `CC(C)C[C@H](NC(=O)[C@@H](NC(=O)[C@@H](N)CCCCN)C(C)C)C(=O)N1CCC[C@H]1C(=O)N[C@@H](Cc1ccc(O)cc1)C(=O)N[C@@H](Cc1ccc(O)cc1)C(=O)N[C@@H](CO)C(=O)N[C@@H](C)C(=O)N[C@@H](Cc1ccc(O)cc1)C(=O)N[C@@H](Cc1ccc(O)cc1)C(N)=O` [SEQ ID NO: 14, Lys--Val--Leu--Pro--Tyr--Tyr--Ser--Ala--Tyr--Tyr-NH2] (H-KVLPYYSAYY-NH2), with 18%.

As to `CC(C)C[C@H](NC(=O)[C@@H](NC(=O)[C@@H](N)CCCCN)C(C)C)C(=O)N1CCC[C@H]1C(=O)N[C@@H](Cc1ccc(O)cc1)C(=O)NCC(=O)N[C@@H](CO)C(=O)N[C@@H](CO)C(=O)N[C@@H](Cc1ccc(O)cc1)C(=O)N[C@@H](Cc1ccc(O)cc1)C(N)=O` [SEQ ID NO: 19, Lys--Val--Leu--Pro--Tyr--Gly--Ser--Ser--Tyr--Tyr-NH2] (H-KVLPYGSSYY-NH2), the inhibition at 300 µM was determined as 34%.

Consider `CC(C)[C@H](NC(=O)[C@@H](N)CCCCN)C(=O)N[C@@H](CCC(N)=O)C(=O)N1CCC[C@H]1C(=O)N[C@@H](Cc1ccc(O)cc1)C(=O)N[C@@H](Cc1ccc(O)cc1)C(=O)N[C@@H](CO)C(=O)N[C@@H](CO)C(=O)N[C@@H](Cc1ccc(O)cc1)C(=O)N[C@@H](Cc1ccc(O)cc1)C(N)=O` [SEQ ID NO: 22, Lys--Val--Gln--Pro--Tyr--Tyr--Ser--Ser--Tyr--Tyr-NH2] (H-KVQPYYSSYY-NH2), for which the inhibition at 300 µM came to 29%. Then `CC[C@H](C)[C@H](NC(=O)[C@H](CO)NC(=O)[C@H](CC(N)=O)NC(=O)[C@H](CC(C)C)NC(=O)[C@H](Cc1ccc(O)cc1)NC(=O)[C@@H](N)CCC(=O)O)C(=O)N[C@@H](CC(C)C)C(=O)N[C@@H](CO)C(=O)N[C@@H](Cc1ccc(O)cc1)C(=O)N[C@@H](CO)C(=O)N1CCC[C@H]1C(=O)N[C@@H](CO)C(=O)N[C@@H](Cc1ccc(O)cc1)C(=O)N[C@@H](Cc1ccc(O)cc1)C(=O)N[C@@H](Cc1c[nH]c2ccccc12)C(N)=O` [SEQ ID NO: 23, Glu--Tyr--Leu--Asn--Ser--Ile--Leu--Ser--Tyr--Ser--Pro--Ser--Tyr--Tyr--Trp-NH2] (H-EYLNSILSYSPSYYW-NH2), with 54%.
